The results in this text go back to ChEMBL document CHEMBL1125857, “Synthesis of substrate-based inhibitors of HMG CoA reductase (II)” (Bioorg Med Chem Lett, 1991).

For the assay, the target named is T1, 3-hydroxy-3-methylglutaryl-coenzyme A reductase (Rattus norvegicus, UniProt P51639).
T1 sequence (P51639 whole entry): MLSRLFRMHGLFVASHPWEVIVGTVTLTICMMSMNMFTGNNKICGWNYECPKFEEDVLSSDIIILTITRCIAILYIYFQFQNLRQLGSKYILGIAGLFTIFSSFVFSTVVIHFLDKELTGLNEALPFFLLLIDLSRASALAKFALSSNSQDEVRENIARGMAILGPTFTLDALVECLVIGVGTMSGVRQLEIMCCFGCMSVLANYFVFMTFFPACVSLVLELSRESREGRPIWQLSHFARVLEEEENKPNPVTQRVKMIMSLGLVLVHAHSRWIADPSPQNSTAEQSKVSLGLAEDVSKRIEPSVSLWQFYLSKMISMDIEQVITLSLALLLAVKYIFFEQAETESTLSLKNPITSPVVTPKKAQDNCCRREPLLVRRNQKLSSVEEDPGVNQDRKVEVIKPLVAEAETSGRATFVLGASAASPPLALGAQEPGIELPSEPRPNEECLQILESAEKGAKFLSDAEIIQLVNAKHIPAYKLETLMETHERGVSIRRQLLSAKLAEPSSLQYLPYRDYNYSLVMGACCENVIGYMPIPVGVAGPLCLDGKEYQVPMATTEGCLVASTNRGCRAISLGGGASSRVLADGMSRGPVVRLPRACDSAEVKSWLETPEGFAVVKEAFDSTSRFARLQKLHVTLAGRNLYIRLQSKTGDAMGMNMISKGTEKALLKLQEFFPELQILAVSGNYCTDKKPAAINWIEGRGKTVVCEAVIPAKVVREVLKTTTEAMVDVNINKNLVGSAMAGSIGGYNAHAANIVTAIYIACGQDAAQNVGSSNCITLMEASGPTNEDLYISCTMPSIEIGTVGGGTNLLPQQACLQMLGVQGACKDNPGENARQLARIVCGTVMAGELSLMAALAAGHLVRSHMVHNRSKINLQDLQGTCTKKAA
Nature of the assay: Compound was tested for inhibitory activity against rat hepatic microsomal HMG-CoA reductase; lacked significant inhibitory activity. The note with it: read-out: I50.

Turning to `CC(C)[C@@H](O)C(=O)NCCC(=O)NCCNCC(O)CC(O)CC(=O)O` (stereo partly drawn), the IC50 is greater than 1 mM.
Regarding `CC(C)[C@@H](O)C(=O)NCCC(=O)NCCNC(=O)C[C@@](C)(O)CC(=O)O`, the IC50 was greater than 1 mM.
Under `CC(C)[C@@H](O)C(=O)NCCC(=O)NCCNC(=O)C[C@@H](O)CC(=O)O` stands greater than 1 mM.
